{"source": "patent US20240165047A1", "about": "“Use Of Honokiol In Preparation Of Drug For Treating Meningioma” (Chengdu Jinrui Foundation Biotech Co., Ltd., priority 2021, published 2024)", "key": {"meningioma": {"system": "meningioma", "test": "Phase I clinical trial of honokiol liposome for injection: cranial MR re-examination of meningioma patients, RANO standard", "type": "in vivo, human", "conditions": "summary statement of the clinical trials", "excerpt": "(§1) Description of the Subject: • person; • on Jan. […] 27, 2018, the subject underwent the resection of a deep skull bottom lesion, endothelial meningoma, and local lesion being hemangioma-type meningoma, accompanied by bleeding, showing the non-typical meningioma, infiltrating bone tissue, comprehensive to malignant meningoma; immunohistochemistry: EMA (positive), PR (scattered in a little positive), SSTR (focal positive), CD34 (blood vessel positive), CD99 (+), S100 (-), Syn (-), CgA (-), CK (occasionally positive), Ki67 (about 8-20%); • in February 2019, the subject was treated for intracranial infection; • in June 2019, the subject received whole brain radiotherapy; • on Mar. 5, 2021, the subject re-examined the cranial MR and the tumor recurred; in order to further treat, at the outpatient of Beijing […] […]"}, "[1]": {"test": "Phase I clinical trial of clinical safety and tolerance of honokiol liposome for injection, safety analysis set (patients with advanced malignant solid tumors)", "type": "in vivo, human", "conditions": "summary statement of the clinical trials", "excerpt": "as §1"}}}
{"compound": "C=CCc1ccc(O)c(-c2ccc(O)c(CC=C)c2)c1", "note": "[honokiol, 3′,5-di-2-propenyl-1,1′-biphenyl-2,4′-diphenol]", "values": [{"measurement": "overall efficacy against meningioma in clinical trials", "setting": "meningioma", "value": "effectively treat the meningioma"}, {"measurement": "overall safety and tolerance in clinical trials", "setting": "[1]", "value": "good safety and tolerance"}]}
